Data set [1] concerns naïve CD4+ T cells. Put plainly: In vitro Foxp3 induction assay: naïve CD4+ T cells co-cultured with DC, CD3 antibody, TGF-β, IL-2. It counts as cell-based, mouse. To be noted: purified SCFA. Here is the method: For in vitro experiments, CD4+ T cells and CD11c+ dendritic cells were enriched using mouse CD4 (L3T4, Invitrogen) and mouse CD11c (N418, BioLegend) antibodies, respectively, that were biotinylated for use with streptavidin-Dynabeads (Invitrogen). Enriched cells were then sorted on a FACSAria II cell sorter (BD Biosciences) for in vitro assays. Intracellular staining for IL-17, IFN-γ, IL-4, IL-13 and Foxp3 was performed using the Foxp3 staining kit (eBiosciences). Cytokine staining was performed after re-stimulation with CD3 antibody and CD28 antibody (5 μg ml-1 each) in the presence of Golgi-plug (BD Biosciences) for 5 hours. DC were expanded in vivo by subcutaneous injection of B16 melanoma cells secreting FLT3-ligand into the left hind flank of mice as indicated. Once tumors were visible, spleens from injected animals were dissociated in RPMI 1640 medium containing 1.67 U mL-1 liberase TL (Roche) and 50 μg mL-1 DNAse I (Roche) for 20 min at 37° C. with shaking EDTA was then added at a final concentration of 5 mM to stop digestion and the resulting homogenate was processed for CD11c+ cell isolation using the MACS mouse CD11c (N418) purification kit (Miltenyi Biotec). In vitro Foxp3 induction assays were performed by co-culturing DC with 5.5×10^4 CD4+CD44loCD62LhiCD25-naïve T cells in the presence of 1 μg ml-1 of CD3 antibody, 1 ng mL-1 TGF-β, and 100 U ml-1 IL-2, in 96-well flat-bottom plates for 4 d. For Foxp3 induction in the presence of butyrate- or TSA-pretreated DC, TGF-β was used at 0.1 ng mL-1 final concentration. In vitro induction assays in the absence of DC were performed by incubating 5.5×10^4 naïve CD4+ T cells with 1 ng mL-1 TGF-β, 100 U ml-1 IL-2, and a 1:1 cell-to-bead ratio of CD3/CD28 T activator Dynabeads (Invitrogen). […] Proliferation of T cells was assessed by [3H]-thymidine incorporation during the final 8 h of culture.

Data set [2] can be described thus: LC-MS analysis of butyrate in serum. It counts as in vivo. To be noted: AVNM-treated mice given butyrate in drinking water vs unperturbed SPF mice. An excerpt:
Foxp3ΔCNS1 (CNS1 knockout), Foxp3GFP, Foxp3Thy1.1 and Gpr109a−/− mice were used in the experiments as previously described (Zheng. Y. et al. Nature, 2010, 463, 808-12; Fontenot, J. D. et al. Immunity, 2005, 22, 329-41; Kim, J. M., et al. Nat Immunol, 2007, 8, 191-7). Male C57BL/6 (B6) mice were purchased from the Jackson Laboratory and groups of 5 co-housed mice were randomly assigned to treatment vs. control groups after confirmation that age and weight were in accordance between groups. Male mice were used for all experiments. All strains were maintained in the Sloan-Kettering Institute animal facility in accordance with institutional guidelines. Mice were sacrificed by CO2 asphyxiation then blindly processed for tissue harvest thereafter. For antibiotic treatment, mice at 5-6 weeks of age were treated with 1 g L-1 metronidazole (Sigma-Aldrich), 0.5 g L-1 vancomycin (Hospira), 1 g L-1 ampicillin (Sigma-Aldrich) and 1 g L-1 kanamycin (Fisher Scientific) dissolved in drinking water. For butyrate, acetate and propionate administration, each SCFA was added to drinking water containing antibiotics (as described above) at a final concentration of 36 mM and pH-adjusted, if needed, to match that of antibiotic-only water. Butyrate was administered to mice after prior treatment with antibiotics for at least 1 week. […]

The subject of data set [3] is naïve CD4+ T cells. Put plainly: In vitro Foxp3 induction in the absence of DC (CD3/CD28 antibody-coated beads, TGF-β). To be noted: purified naive CD4+ T cells, CD3 and CD28 antibody-coated beads. It counts as cell-based, mouse. As to the method: (§1) In vitro Foxp3 induction assays were performed by co-culturing DC with 5.5×10^4 CD4+CD44loCD62LhiCD25-naïve T cells in the presence of 1 μg ml-1 of CD3 antibody, 1 ng mL-1 TGF-β, and 100 U ml-1 IL-2, in 96-well flat-bottom plates for 4 d. For Foxp3 induction in the presence of butyrate- or TSA-pretreated DC, TGF-β was used at 0.1 ng mL-1 final concentration. In vitro induction assays in the absence of DC were performed by incubating 5.5×10^4 naïve CD4+ T cells with 1 ng mL-1 TGF-β, 100 U ml-1 IL-2, and a 1:1 cell-to-bead ratio of CD3/CD28 T activator Dynabeads (Invitrogen). For in vitro suppression assays, 4×10^4 naïve CD4+ T cells were FACS-sorted from B6 mice and cultured with graded numbers of CD4+Foxp3+ Treg cells FACS-sorted from Foxp3GFP mice treated with antibiotics and with or without butyrate, in the presence of […] irradiated T cell-depleted splenocytes and 1 μg ml-1 CD3 antibody in a 96-well round-bottom plate for 80 h. Proliferation of T cells was assessed by [3H]-thymidine incorporation during the final 8 h of culture.

In data set [4] the test system is Foxp3 promoter and CNS1 enhancer. Put plainly: H3K27Ac ChIP-qPCR at the Foxp3 locus. It counts as cell-based, mouse. The note with it: 3 days, CD3/CD28 beads and TGF-β. Here is the method: H3K27Ac ChIP-qPCR was performed as previously described (Samstein, R. M. et al. Cell, 2012, 151, 153-66). Briefly, fixed cells were lysed and mono- and poly-nucleosomes were obtained by partial digestion with micrococcal nuclease (12,000 U mL-1) in 1 min at 37° C. EDTA was added to a final concentration of 50 mM to stop the reaction, and digested nuclei were resuspended in nuclear lysis buffer with 1% SDS. After sonication, 1 ug H3K27Ac-specific antibody (Abcam, ab4729) was used to precipitate H3K27Ac-bound chromatin. Washing and de-crosslinking was performed as described (Samstein, R. M. et al. Cell, 2012, 151, 153-66).

In data set [5] the test system is Flt3L-elicited CD11c+ dendritic cells. Put plainly: DC viability by live/dead staining and flow cytometry. It counts as cell-based, mouse. To be noted: butyrate pretreatment 6 h.
For the next data set, the system named is Foxp3+ Treg cells. Put plainly: SCFA in drinking water to AVNM-treated mice, flow cytometric analysis of Foxp3+ Treg cell subsets. It counts as in vivo. The note with it: for colonic Treg cells (accumulation of Treg cells in the colon): SCFA in drinking water; for Treg cell subsets in the spleen: drinking water, AVNM-treated CNS1-sufficient mice. An excerpt:
Fox[…] (CNS1 knockout), Foxp3GFP, Foxp3Thy1.1 and Gpr109a-/- mice were used in the experiments as previously described (Zheng. Y. et al. Nature, 2010, 463, 808-12; Fontenot, J. D. et al. Immunity, 2005, 22, 329-41; Kim, J. M., et al. Nat Immunol, 2007, 8, 191-7). Male C57BL/6 (B6) mice were purchased from the Jackson Laboratory and groups of 5 co-housed mice were randomly assigned to treatment vs. control groups after confirmation that age and weight were in accordance between groups. Male mice were used for all experiments. All strains were maintained in the Sloan-Kettering Institute animal facility in accordance with institutional guidelines. Mice were sacrificed by CO2 asphyxiation then blindly processed for tissue harvest thereafter. For antibiotic treatment, mice at 5-6 weeks of age were treated with 1 g L-1 metronidazole (Sigma-Aldrich), 0.5 g L-1 vancomycin (Hospira), 1 g L-1 ampicillin (Sigma-Aldrich) and 1 g L-1 kanamycin (Fisher Scientific) dissolved in drinking water. […] Butyrate was administered to mice after prior treatment with antibiotics for at least 1 week. For in vitro experiments, CD4+ T cells and CD11c+ dendritic cells were enriched using mouse CD4 (L3T4, Invitrogen) and mouse CD11c (N418, BioLegend) antibodies, respectively, that were biotinylated for use with streptavidin-Dynabeads (Invitrogen). Enriched cells were then sorted on a FACSAria II cell sorter (BD Biosciences) for in vitro assays. Intracellular staining for IL-17, IFN-γ, IL-4, IL-13 and Foxp3 was performed using the Foxp3 staining kit (eBiosciences). Cytokine staining was performed after re-stimulation with CD3 antibody and CD28 antibody (5 μg ml-1 each) in the presence of Golgi-plug (BD Biosciences) for 5 hours.

Data set [6] in a line: Butyrate levels in fecal pellets after butyrate in drinking water. The format is in vivo. The note with it: AVNM-treated mice given butyrate via drinking water. As to the method:
Stool samples were collected directly into sterile tubes from live mice and snap-frozen before preparation of material for SCFA quantification by HPLC or LC-MS (see corresponding section for further sample processing).
HPLC analysis was performed for analysis of derivatized stool extracts as previously described (Torii, T. et al. Ann. Clin. Biochem, 2010, 47, 447-452). Briefly, flash-frozen stool samples were extracted with 70% ethanol and brought to a final concentration of 0.1 μg μL-1. Debris was removed by centrifugation and 300 μL of supernatant was transferred to a new tube and combined with 50 μL of internal standard (2-ethylbutyric acid, 200 mM in 50% aqueous methanol), 300 μL of dehydrated pyridine 3% v/v (Wako) in ethanol, 300 μL of 250 mM N-(3-dimethlaminopropyl)-N′-ethylcarbodiimide hydrochloride (Sigma-Aldrich) in ethanol, and 300 μL of 20 mM 2-nitrophenylhydrazine hydrochloride (Tokyo Chemical) in ethanol. Samples were incubated at 60° C. for 20 min and 200 μL of potassium hydroxide 15% w/v dissolved 80/20 in methanol was added to stop the derivatization reaction. […] Derivatized SCFA were resuspended in 100 μL of mobile phase (below) and 20 μL was chromatographed on a Shimadzu HPLC system equipped with a Vydac 2.1×30 mm 300 A C18 column run at 200 μL min-1 in methanol/acetonitrile/TFA (30%/16%/0.1% v/v) and monitored for absorbance at 400 nm.

In the next data set the test system is Flt3L-elicited DC. Put plainly: Foxp3 induction by DC pre-treated with SCFA or TSA for 6 h, washed, co-cultured with naïve CD4+ T cells. The format is cell-based, mouse. To be noted: DC pre-treated 6 h, then agent removed. As to the method:
DC were expanded in vivo by subcutaneous injection of B16 melanoma cells secreting FLT3-ligand into the left hind flank of mice as indicated. Once tumors were visible, spleens from injected animals were dissociated in RPMI 1640 medium containing 1.67 U mL-1 liberase TL (Roche) and 50 μg mL-1 DNAse I (Roche) for 20 min at 37° C. with shaking EDTA was then added at a final concentration of 5 mM to stop digestion and the resulting homogenate was processed for CD11c+ cell isolation using the MACS mouse CD11c (N418) purification kit (Miltenyi Biotec).
as §1

Another data set concerns the target T1, GPR43 (Mus musculus, UniProt Q8VCK6).
T1 sequence (Q8VCK6 1-330): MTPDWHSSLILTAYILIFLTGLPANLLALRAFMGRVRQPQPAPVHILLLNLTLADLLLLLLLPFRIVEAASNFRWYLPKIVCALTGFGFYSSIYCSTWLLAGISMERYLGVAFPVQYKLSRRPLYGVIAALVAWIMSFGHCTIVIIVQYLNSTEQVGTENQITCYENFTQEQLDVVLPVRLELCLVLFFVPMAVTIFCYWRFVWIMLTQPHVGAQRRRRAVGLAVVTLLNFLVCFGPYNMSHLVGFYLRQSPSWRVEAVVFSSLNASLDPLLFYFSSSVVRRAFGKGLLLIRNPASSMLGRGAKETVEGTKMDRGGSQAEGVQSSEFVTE
The note with it: Smith et al. Science 2013; cited from earlier work.

Structures are written as SMILES. “Also recorded” adds a separate entry of the source. A value given as a limit tells only on which side of the number the result lay.

Consider `CC(C)CC(=O)O` [isovalerate], for which, in the data set on naïve CD4+ T cells [1], the “TGF-β-dependent generation of Foxp3+ cells in vitro” value (shortened to “TGF-β-dependent generation”) is reported as “augmented”.

On to `CCCC(=O)O` [butyrate], for which the butyrate serum levels result in data set [2] was “comparable to those found in unperturbed SPF mice”. Also, the “increase in numbers of Foxp3+ cells in DC-free cultures” value in the data set on naïve CD4+ T cells [3] was less than 1.5 fold. The “increase in H3K27-Ac occupancy” value in data set [4] (Foxp3+ cells) is given as approximately 30%. Further, the “increase in H3K27-Ac at the Foxp3 promoter and CNS1 enhancer” value in data set [4] (Foxp3− cells) is on record as 3 fold. For the same compound, the DC viability entry in [5] is “no detrimental effect; also recorded: maintain”. In the data set on Foxp3+ Treg cells (butyrate in drinking water, AVNM-treated mice), the non-lymphoid tissue histology entry is “remained unchanged”. For the same compound, the “levels of butyrate in fecal pellets” value in [6] was “not reconstituted”.

For `CC(=O)O` [acetate], the “TGF-β-dependent generation” value in the data set with naïve CD4+ T cells [1] was “not”. Further, the “ability of pre-treated DCs to induce Foxp3 expression in naïve CD4+ T cells” value with Flt3L-elicited DC is “not”. For the same compound, in the data set on Foxp3+ Treg cells (AVNM-treated mice), the “colonic Treg cells (accumulation of Treg cells in the colon)” value is “promoted accumulation”. Also, the “Treg cell subsets in the spleen” value in the data set with Foxp3+ Treg cells is on record as “did not increase”. Further, the “accumulation of Treg cells in the colon by activating GPR43” value on GPR43 is recorded as “promote accumulation”.

For the compound `CCC(=O)O` [propionate], the “TGF-β-dependent generation” value in the data set on naïve CD4+ T cells [1] is listed as “augmented”. Further, the “ability of pre-treated DCs to induce Foxp3 expression in naïve CD4+ T cells” value in the data set with Flt3L-elicited DC is listed as “to a lesser extent”. Moreover, the “colonic Treg cells (accumulation of Treg cells in the colon)” value in the data set on Foxp3+ Treg cells (AVNM-treated mice) is “promoted accumulation”. Also, the “Treg cell subsets in the spleen” value with Foxp3+ Treg cells is “increased”. Besides, the “accumulation of Treg cells in the colon by activating GPR43” value at GPR43 was “promote accumulation”.

(Values after patent US20160271086A1, “METHODS AND COMPOSITIONS FOR INDUCING REGULATORY T-CELL GENERATION” (SLOAN-KETTERING INSTITUTE FOR CANCER RESEARCH, priority 2013, published 2016).)
